Experimental data reported in ChEMBL document CHEMBL4004878, “Design, synthesis and structure-bactericidal activity relationships of novel 9-oxime ketolides and reductive epimers of acylides” (2017).
In brackets after ≈: the same amount, converted by molar mass.

Assays:
Assay type in all cases: functional
Streptococcus pneumoniae [1] = test: Bacteriostatic activity against […] Streptococcus pneumoniae ATCC 49619 after 20 to 24 hrs by two-fold microbroth dilution method
Streptococcus pneumoniae [2] = test: Bactericidal activity against […] Streptococcus pneumoniae ATCC 49619 incubated for 20 to 24 hrs followed by sub-culturing for 24 hrs in absence of compound
Streptococcus pneumoniae [3] = test: Bacteriostatic activity against penicillin-susceptible Streptococcus pneumoniae PU09 after 20 to 24 hrs by two-fold microbroth dilution method
Streptococcus pneumoniae [4] = test: Bactericidal activity against penicillin-susceptible Streptococcus pneumoniae PU09 incubated for 20 to 24 hrs followed by sub-culturing for 24 hrs in absence of compound
Streptococcus pneumoniae [5] = test: Ratio of MBC to MIC for penicillin-susceptible Streptococcus pneumoniae PU09
Streptococcus pyogenes [6] = test: Bacteriostatic activity against Streptococcus pyogenes 01-968 expressing inducible ermA after 20 to 24 hrs by two-fold microbroth dilution method
Streptococcus pyogenes [7] = test: Bactericidal activity against Streptococcus pyogenes 01-968 expressing inducible ermA incubated for 20 to 24 hrs followed by sub-culturing for 24 hrs in absence of compound
Streptococcus pyogenes [8] = test: Ratio of MBC to MIC for Streptococcus pyogenes 01-968 expressing inducible ermA
Haemophilus influenzae [9] = test: Bacteriostatic activity against azithromycin-susceptible/ampicillin-resistant Haemophilus influenzae 11P307 after 20 to 24 hrs by two-fold microbroth dilution method
Haemophilus influenzae [10] = test: Bactericidal activity against azithromycin susceptible/ampicillin-resistant Haemophilus influenzae 11P307 incubated for 20 to 24 hrs followed by sub-culturing for 24 hrs in absence of compound
Haemophilus influenzae [11] = test: Ratio of MBC to MIC for azithromycin susceptible/ampicillin-resistant Haemophilus influenzae 11P307
Staphylococcus aureus [12] = test: Bacteriostatic activity against methicillin-resistant Staphylococcus aureus PU20 expressing constitutive ermC after 20 hrs by two-fold microbroth dilution method; settings: PU20, 20 h
Staphylococcus aureus [13] = test: Bactericidal activity against methicillin-resistant Staphylococcus aureus PU20 expressing constitutive ermC incubated for 20 hrs followed by sub-culturing for 24 hrs in absence of compound
Staphylococcus aureus [14] = test: Bacteriostatic activity against methicillin-resistant Staphylococcus aureus PU32 expressing inducible ermA after 20 hrs by two-fold microbroth dilution method; settings: PU32, 20 h
Staphylococcus aureus [15] = test: Bactericidal activity against methicillin-resistant Staphylococcus aureus PU32 expressing inducible ermA incubated for 20 hrs followed by sub-culturing for 24 hrs in absence of compound
Staphylococcus aureus [16] = test: Ratio of MBC to MIC against methicillin-resistant Staphylococcus aureus PU32 expressing inducible ermA
Moraxella catarrhalis [17] = test: Bacteriostatic activity against erythromycin-susceptible Moraxella catarrhalis 13L332 after 20 hrs by two-fold microbroth dilution method; settings: 13L332, 20 h
Moraxella catarrhalis [18] = test: Bactericidal activity against erythromycin-susceptible Moraxella catarrhalis 13L332 incubated for 20 hrs followed by sub-culturing for 24 hrs in absence of compound
Moraxella catarrhalis [19] = test: Ratio of MBC to MIC against erythromycin-susceptible Moraxella catarrhalis 13L332
Haemophilus influenzae [20] = test: Bacteriostatic activity against azithromycin-susceptible Haemophilus influenzae ATCC 49247 after 20 to 24 hrs by two-fold microbroth dilution method
Haemophilus influenzae [21] = test: Bactericidal activity against azithromycin-susceptible Haemophilus influenzae ATCC 49247 incubated for 20 to 24 hrs followed by sub-culturing for 24 hrs in absence of compound
Haemophilus influenzae [22] = test: Ratio of MBC to MIC against azithromycin-susceptible Haemophilus influenzae ATCC 49247
Streptococcus pyogenes [23] = test: Bacteriostatic activity against Streptococcus pyogenes 12-207 expressing mef after 20 to 24 hrs by two-fold microbroth dilution method
Streptococcus pyogenes [24] = test: Bactericidal activity against Streptococcus pyogenes 12-207 expressing mef incubated for 20 to 24 hrs followed by sub-culturing for 24 hrs in absence of compound
Streptococcus pyogenes [25] = test: Ratio of MBC to MIC for Streptococcus pyogenes 12-207 expressing mef
Moraxella catarrhalis [26] = test: Bacteriostatic activity against erythromycin-susceptible Moraxella catarrhalis 11B366 after 20 hrs by two-fold microbroth dilution method; settings: 11B366, 20 h
Moraxella catarrhalis [27] = test: Bactericidal activity against erythromycin-susceptible Moraxella catarrhalis 11B366 incubated for 20 hrs followed by sub-culturing for 24 hrs in absence of compound
Moraxella catarrhalis [28] = test: Ratio of MBC to MIC against erythromycin-susceptible Moraxella catarrhalis 11B366
Streptococcus pneumoniae [29] = test: Ratio of MBC to MIC for […] Streptococcus pneumoniae ATCC 49619
Staphylococcus aureus [30] = test: Ratio of MBC to MIC for methicillin-resistant Staphylococcus aureus PU20 expressing constitutive ermC

SMILES | MIC (Streptococcus pneumoniae [1]) | MBC (Streptococcus pneumoniae [2]) | MIC (Streptococcus pneumoniae [3]) | MBC (Streptococcus pneumoniae [4]) | Ratio (Streptococcus pneumoniae [5]) | MIC (Streptococcus pyogenes [6]) | MBC (Streptococcus pyogenes [7]) | Ratio (Streptococcus pyogenes [8]) | MIC (Haemophilus influenzae [9]) | MBC (Haemophilus influenzae [10]) | Ratio (Haemophilus influenzae [11]) | MIC (Staphylococcus aureus [12]) | MBC (Staphylococcus aureus [13]) | MIC (Staphylococcus aureus [14]) | MBC (Staphylococcus aureus [15]) | Ratio (Staphylococcus aureus [16]) | MIC (Moraxella catarrhalis [17]) | MIC (Haemophilus influenzae [20]) | MBC (Haemophilus influenzae [21]) | Ratio (Haemophilus influenzae [22]) | also measured
CC[C@H]1OC(=O)[C@@](C)(F)C(=O)[C@H](C)[C@@H](O[C@@H]2O[C@H](C)C[C@H](N(C)C)[C@H]2O)[C@](C)(OC)C[C@@H](C)/C(=N\OC/C=C/c2cncc(C(N)=O)c2)[C@H](C)[C@H]2OC(=O)O[C@@]21C | 0.062 µg/mL (≈ 0.0768 µM) | 0.125 µg/mL (≈ 0.155 µM) | 0.25 µg/mL (≈ 0.31 µM) | 0.5 µg/mL (≈ 0.62 µM) | 2 | 0.062 µg/mL (≈ 0.0768 µM) | > 0.5 µg/mL | >8 | 16 µg/mL (≈ 19.8 µM) | 16 µg/mL (≈ 19.8 µM) | 1 | > 256 µg/mL | > 256 µg/mL | 1 µg/mL (≈ 1.24 µM) | 8 µg/mL (≈ 9.91 µM) | 8 | 0.062 µg/mL (≈ 0.0768 µM) | 16 µg/mL (≈ 19.8 µM) | 32 µg/mL (≈ 39.7 µM) | 2 | MBC (Moraxella catarrhalis [18]): > 0.5 µg/mL; Ratio (Moraxella catarrhalis [19]): >8
CC[C@H]1OC(=O)[C@H](C)[C@@H](O[C@H]2C[C@@](C)(OC)[C@@H](O)[C@H](C)O2)[C@H](C)[C@@H](O[C@@H]2O[C@H](C)C[C@H](N(C)C)[C@H]2O)[C@](C)(OC)C[C@@H](C)C(=O)[C@H](C)[C@@H](O)[C@]1(C)O [CLARITHROMYCIN] | 0.031 to 0.062 µg/mL (≈ 0.0414 to 0.0829 µM) | 0.062 to 0.125 µg/mL (≈ 0.0829 to 0.167 µM) | 4 µg/mL (≈ 5.35 µM) | 8 µg/mL (≈ 10.7 µM) | 2 | 1 µg/mL (≈ 1.34 µM) | > 8 µg/mL | >8 | 1 to 8 µg/mL (≈ 1.34 to 10.7 µM) | 8 to 16 µg/mL (≈ 10.7 to 21.4 µM) | 2 - 8 | > 256 µg/mL | > 256 µg/mL | 8 to 32 µg/mL (≈ 10.7 to 42.8 µM) | 16 to 256 µg/mL (≈ 21.4 to 342 µM) | >2 - 8 | 0.031 µg/mL (≈ 0.0414 µM) | 16 µg/mL (≈ 21.4 µM) | 32 µg/mL (≈ 42.8 µM) | 2 | MIC (Streptococcus pyogenes [23]): 16 µg/mL (≈ 21.4 µM); MBC (Streptococcus pyogenes [24]): 32 µg/mL (≈ 42.8 µM); Ratio (Streptococcus pyogenes [25]): 2; MIC (Moraxella catarrhalis [26]): 0.125 µg/mL (≈ 0.167 µM); MBC (Moraxella catarrhalis [27]): 0.25 µg/mL (≈ 0.334 µM); Ratio (Moraxella catarrhalis [28]): 2; MBC (Moraxella catarrhalis [18]): 0.125 µg/mL (≈ 0.167 µM); Ratio (Moraxella catarrhalis [19]): 4
CC[C@H]1OC(=O)[C@H](C)C(=O)[C@H](C)[C@@H](O[C@@H]2O[C@H](C)C[C@H](N(C)C)[C@H]2O)[C@](C)(OC)C[C@@H](C)C(=O)[C@H](C)[C@H]2N(CCCCn3cnc(-c4cccnc4)c3)C(=O)O[C@]12C [TELITHROMYCIN] | 0.016 to 0.031 µg/mL (≈ 0.0197 to 0.0382 µM) | 0.031 µg/mL (≈ 0.0382 µM) | 0.25 µg/mL (≈ 0.308 µM) | 0.5 to 1 µg/mL (≈ 0.616 to 1.23 µM) | 2 - 4 | 0.062 µg/mL (≈ 0.0764 µM) | 0.125 to 0.5 µg/mL (≈ 0.154 to 0.616 µM) | 2 - 8 | 1 to 4 µg/mL (≈ 1.23 to 4.93 µM) | 4 µg/mL (≈ 4.93 µM) | 1 - 4 | > 256 µg/mL | > 256 µg/mL | 0.125 to 0.25 µg/mL (≈ 0.154 to 0.308 µM) | 1 to 2 µg/mL (≈ 1.23 to 2.46 µM) | >8 | 0.125 µg/mL (≈ 0.154 µM) | 8 µg/mL (≈ 9.85 µM) | 8 µg/mL (≈ 9.85 µM) | 1 | Ratio (Streptococcus pneumoniae [29]): 1 - 2; MIC (Streptococcus pyogenes [23]): 0.5 µg/mL (≈ 0.616 µM); MBC (Streptococcus pyogenes [24]): 1 µg/mL (≈ 1.23 µM); Ratio (Streptococcus pyogenes [25]): 2; MIC (Moraxella catarrhalis [26]): 0.25 µg/mL (≈ 0.308 µM); MBC (Moraxella catarrhalis [27]): 0.25 µg/mL (≈ 0.308 µM); Ratio (Moraxella catarrhalis [28]): 1; MBC (Moraxella catarrhalis [18]): 0.5 µg/mL (≈ 0.616 µM); Ratio (Moraxella catarrhalis [19]): 4
CC[C@H]1OC(=O)[C@@](C)(F)C(=O)[C@H](C)[C@@H](O[C@@H]2O[C@H](C)C[C@H](N(C)C)[C@H]2O)[C@](C)(OC)C[C@@H](C)/C(=N\OC/C=C/c2cncc(N)c2)[C@H](C)[C@H]2OC(=O)O[C@@]21C | 0.125 µg/mL (≈ 0.16 µM) | 0.25 µg/mL (≈ 0.321 µM) | 0.5 µg/mL (≈ 0.642 µM) | 1 µg/mL (≈ 1.28 µM) | 2 | 0.062 µg/mL (≈ 0.0796 µM) | > 0.5 µg/mL | >8 | 16 µg/mL (≈ 20.5 µM) | 32 µg/mL (≈ 41.1 µM) | 2 | > 256 µg/mL | > 256 µg/mL | 0.5 µg/mL (≈ 0.642 µM) | > 4 µg/mL | >8 | 0.031 µg/mL (≈ 0.0398 µM) | 32 µg/mL (≈ 41.1 µM) | 32 µg/mL (≈ 41.1 µM) | 1 | MBC (Moraxella catarrhalis [18]): > 0.25 µg/mL; Ratio (Moraxella catarrhalis [19]): >8
CC[C@H]1OC(=O)[C@H](C)C(=O)[C@H](C)[C@@H](O[C@@H]2O[C@H](C)C[C@H](N(C)C)[C@H]2O)[C@](C)(OC)C[C@@H](C)/C(=N\OC/C=C/c2cnc3ccccc3c2)[C@H](C)[C@H]2OC(=O)O[C@@]21C | ≤ 0.008 µg/mL | 0.031 µg/mL (≈ 0.0389 µM) | 0.25 µg/mL (≈ 0.314 µM) | 0.5 µg/mL (≈ 0.628 µM) | 2 | 0.062 µg/mL (≈ 0.0779 µM) | > 0.5 µg/mL | >8 | 8 to 32 µg/mL (≈ 10.1 to 40.2 µM) | 64 to 128 µg/mL (≈ 80.4 to 161 µM) | >=4 - 8 | 32 µg/mL (≈ 40.2 µM) | 32 µg/mL (≈ 40.2 µM) | 1 µg/mL (≈ 1.26 µM) | > 8 µg/mL | >8 |  | 64 µg/mL (≈ 80.4 µM) | > 256 µg/mL | >4 | Ratio (Streptococcus pneumoniae [29]): >=4; MIC (Streptococcus pyogenes [23]): 0.016 µg/mL (≈ 0.0201 µM); MBC (Streptococcus pyogenes [24]): > 0.125 µg/mL; Ratio (Streptococcus pyogenes [25]): >8; Ratio (Staphylococcus aureus [30]): 1; MIC (Moraxella catarrhalis [26]): 2 µg/mL (≈ 2.51 µM); MBC (Moraxella catarrhalis [27]): 2 µg/mL (≈ 2.51 µM); Ratio (Moraxella catarrhalis [28]): 1
